Source: patent US20090246293A1 (priority 2008, published 2009)
Like-named read-outs stand apart in the source and are kept apart here.

Experiments:
[1] = system: Plasmopara viticola (PLASVI); type: in vivo; conditions: for Reduction in percent disease, Formul. I / Reduction in percent disease, Formul. II / Reduction in percent disease: PLASVI; for Reduction in percent disease, Formul. I / Reduction in percent disease, Formul. II: Table 21; for Reduction in percent disease, Formul. II: fungicide with Formulation II at 100 ppm; for effect of Formulation I on the effectiveness of fungicides, PLASVI: Table 20; for Reduction in percent disease: aldehyde derivative 100 ppm with mancozeb
[2] = system: Pseudoperonospora cubensis (PSPECU); conditions: in vivo
[3] = system: Phytophthora infestans (PHYTIN); type: in vivo; conditions: for Reduction in percent disease, Formul. I / Reduction in percent disease, Formul. II: PHYTIN; for Reduction in percent disease, Formul. II: fungicide with Formulation II at 100 ppm; for effect of Formulation I on the effectiveness of fungicides, PHYTIN: Table 20
[4] = fungicide with Formulation I at 100 ppm, Table 19
[5] = fungicide with Formulation I at 100 ppm
[6] = fungicide with Formulation I at 100 ppm, Table 21
[7] = fungicide with Formulation I at 100 ppm, Table 18
[8] = aldehyde derivative 500 ppm with mancozeb, Table 16

With `C[C@@]1(c2ccc(Oc3ccccc3)cc2)OC(=O)N(Nc2ccccc2)C1=O` (racemic) [Famoxadone] the “Reduction in percent disease PLASVI” value [1, 4] was “x (0-20% reduction in percent disease)”, the “Reduction in percent disease PSPECU” value [2] was “x (key: x: 0-20% reduction in percent disease; xx: 21-35% reduction in percent disease; xxx: 36-50% reduction in percent disease; xxxx: >50% reduction in percent disease)” and the “Reduction in percent disease PHYTIN” value [3, 4] was “xx (21-35% reduction in percent disease)”.
In the case of `Cc1c(Br)c2ccc(F)cc2n1S(=O)(=O)c1ncn(S(=O)(=O)N(C)C)n1` [Amisulbrom], the “Reduction in percent disease, Formul. I” value [1, 5] is reported as “xxx (36-50% reduction in percent disease)”, the “Reduction in percent disease, Formul. II” value [1] is reported as “xx (21-35% reduction in percent disease)” and the “effect of Formulation I on the effectiveness of fungicides, PLASVI” value [1, 5] is reported as “x (0-20% reduction in percent disease)”. The “Reduction in percent disease, Formul. I” value [2] was “x (key: x: 0-20% reduction in percent disease; xx: 21-35% reduction in percent disease; xxx: 36-50% reduction in percent disease; xxxx: >50% reduction in percent disease)”, the “Reduction in percent disease, Formul. II” value [2] was “x (key: x: 0-20% reduction in percent disease; xx: 21-35% reduction in percent disease; xxx: 36-50% reduction in percent disease; xxxx: >50% reduction in percent disease)” and the “Reduction in percent disease, Formul. I” value [3, 6] was “x (0-20% reduction in percent disease)”. The “Reduction in percent disease, Formul. II” value ([3]; Table 21) was “x (0-20% reduction in percent disease)” and the “effect of Formulation I on the effectiveness of fungicides, PHYTIN” value (shortened to “effect of Formulation I … PHYTIN”) [3, 5] was “x (0-20% reduction in percent disease)”.
With `CO/C=C(/C(=O)OC)c1ccccc1Oc1cc(Oc2ccccc2C#N)ncn1` [Azoxystrobin] the “Reduction in percent disease PLASVI” value [1, 7] was “x (0-20% reduction in percent disease)”, the “Reduction in percent disease PSPECU” value [2] was “x (key: x: 0-20% reduction in percent disease; xx: 21-35% reduction in percent disease; xxx: 36-50% reduction in percent disease; xxxx: >50% reduction in percent disease)” and the “effect of Formulation I on the effectiveness of fungicides, PSPECU” value [2] was “x (key: x: 0-20% reduction in percent disease; xx: 21-35% reduction in percent disease; xxx: 36-50% reduction in percent disease; xxxx: >50% reduction in percent disease)”. The “Reduction in percent disease PHYTIN” value [3, 7] was “xx (21-35% reduction in percent disease)” and the “effect of Formulation I … PHYTIN” value [3, 5] was “xxx (36-50% reduction in percent disease)”.
With `CC(C)[C@H](NC(=O)O)C(=O)N[C@H](C)c1nc2ccc(F)cc2s1` [Benthiavalicarb] the “Reduction in percent disease PLASVI” value [1, 4] was “x (0-20% reduction in percent disease)”, the “Reduction in percent disease PSPECU” value [2] was “xx (key: x: 0-20% reduction in percent disease; xx: 21-35% reduction in percent disease; xxx: 36-50% reduction in percent disease; xxxx: >50% reduction in percent disease)” and the “Reduction in percent disease PHYTIN” value [3, 4] was “x (0-20% reduction in percent disease)”.
In the case of `CC(C)C/C=N/NC(=O)N/N=C/CC(C)C` [Compound F], the “Reduction in percent disease” value ([1]; Table 13) is reported as “x (0-20% reduction in percent disease)” and the “Reduction in percent disease” value [2] is reported as “xx (key: x: 0-20% reduction in percent disease; xx: 21-35% reduction in percent disease; xxx: 36-50% reduction in percent disease; xxxx: >50% reduction in percent disease)”.
For `CC(C)C/C=N/NC(=O)C(=O)N/N=C/CC(C)C` [Compound G], the “Reduction in percent disease” value ([1]; Table 13) was “xx (21-35% reduction in percent disease)” and the “Reduction in percent disease” value [2] was “xxx (key: x: 0-20% reduction in percent disease; xx: 21-35% reduction in percent disease; xxx: 36-50% reduction in percent disease; xxxx: >50% reduction in percent disease)”.
In the case of `CC(=O)N/N=C/CC(C)C` [Compound H], the “Reduction in percent disease” value ([1]; Table 13) is reported as “xx (21-35% reduction in percent disease)” and the “Reduction in percent disease” value [2] is reported as “xx (key: x: 0-20% reduction in percent disease; xx: 21-35% reduction in percent disease; xxx: 36-50% reduction in percent disease; xxxx: >50% reduction in percent disease)”.
For `CC(C)C/C=N/NC(=O)CCCCCCCCC(=O)N/N=C/CC(C)C` [Compound J], the “Reduction in percent disease” value ([1]; Table 15) was “x (0-20% reduction in percent disease)” and the “Reduction in percent disease” value [2] was “xx (key: x: 0-20% reduction in percent disease; xx: 21-35% reduction in percent disease; xxx: 36-50% reduction in percent disease; xxxx: >50% reduction in percent disease)”.
For `CCCCCCCC(=O)N/N=C/CC(C)C` [Compound K], the “Reduction in percent disease” value ([1]; Table 15) was “xx (21-35% reduction in percent disease)” and the “Reduction in percent disease” value [2] was “xx (key: x: 0-20% reduction in percent disease; xx: 21-35% reduction in percent disease; xxx: 36-50% reduction in percent disease; xxxx: >50% reduction in percent disease)”.
For `CCCCCCCCCCCCCCCCCC(=O)NN=CCC(C)C` [Compound L], the “Reduction in percent disease” value ([1]; Table 15) was “xxx (36-50% reduction in percent disease)” and the “Reduction in percent disease” value [2] was “xx (key: x: 0-20% reduction in percent disease; xx: 21-35% reduction in percent disease; xxx: 36-50% reduction in percent disease; xxxx: >50% reduction in percent disease)”.
For `CCCC(=O)N/N=C/CC(C)C` [Compound M], the “Reduction in percent disease” value ([1]; Table 15) was “xx (21-35% reduction in percent disease)” and the “Reduction in percent disease” value [2] was “xxx (key: x: 0-20% reduction in percent disease; xx: 21-35% reduction in percent disease; xxx: 36-50% reduction in percent disease; xxxx: >50% reduction in percent disease)”.
In the case of `CC(C)C/C=N/NC(=O)CCCCC(=O)N/N=C/CC(C)C` [Compound N], the “Reduction in percent disease” value ([1]; Table 15) is reported as “x (0-20% reduction in percent disease)” and the “Reduction in percent disease” value [2] is reported as “xx (key: x: 0-20% reduction in percent disease; xx: 21-35% reduction in percent disease; xxx: 36-50% reduction in percent disease; xxxx: >50% reduction in percent disease)”.
In the case of `C/C(CC(C)C)=N\NC(=O)Nc1ccccc1` [Compound O], the “Reduction in percent disease PLASVI” value [1, 8] is reported as “x (0-20% reduction in percent disease)”, the “Reduction in percent disease PSPECU” value [2] is reported as “xx (key: x: 0-20% reduction in percent disease; xx: 21-35% reduction in percent disease; xxx: 36-50% reduction in percent disease; xxxx: >50% reduction in percent disease)” and the “Reduction in percent disease PHYTIN” value [3, 8] is reported as “xx (21-35% reduction in percent disease)”.
`CCC(C)/C=N/NC(=O)c1cccc(C(=O)N/N=C/C(C)CC)c1` (stereo not shown) [Compound P] was tested, and the “Reduction in percent disease PLASVI” value [1, 8] was “x (0-20% reduction in percent disease)”, the “Reduction in percent disease PSPECU” value [2] was “x (key: x: 0-20% reduction in percent disease; xx: 21-35% reduction in percent disease; xxx: 36-50% reduction in percent disease; xxxx: >50% reduction in percent disease)” and the “Reduction in percent disease PHYTIN” value [3, 8] was “x (0-20% reduction in percent disease)”.
For `CC(C)(C)C/C=N/NC(=O)c1cccc(C(=O)N/N=C/CC(C)(C)C)c1` [Compound S], the “Reduction in percent disease PLASVI” value [1, 8] was “x (0-20% reduction in percent disease)”, the “Reduction in percent disease PSPECU” value [2] was “x (key: x: 0-20% reduction in percent disease; xx: 21-35% reduction in percent disease; xxx: 36-50% reduction in percent disease; xxxx: >50% reduction in percent disease)” and the “Reduction in percent disease PHYTIN” value [3, 8] was “xx (21-35% reduction in percent disease)”.
`CCCCCCCCCc1c(COC)nc2ncnn2c1N` [Compound T] was tested, and the “Reduction in percent disease, Formul. I” value [1, 5] was “x (0-20% reduction in percent disease)”, the “Reduction in percent disease, Formul. II” value [1] was “x (0-20% reduction in percent disease)” and the “Reduction in percent disease, Formul. I” value [2] was “x (key: x: 0-20% reduction in percent disease; xx: 21-35% reduction in percent disease; xxx: 36-50% reduction in percent disease; xxxx: >50% reduction in percent disease)”. The “Reduction in percent disease, Formul. II” value [2] was “x (key: x: 0-20% reduction in percent disease; xx: 21-35% reduction in percent disease; xxx: 36-50% reduction in percent disease; xxxx: >50% reduction in percent disease)”, the “Reduction in percent disease, Formul. I” value [3, 6] was “x (0-20% reduction in percent disease)” and the “Reduction in percent disease, Formul. II” value ([3]; Table 21) was “x (0-20% reduction in percent disease)”.
In the case of `[Cl-].[Cu+2].[Cu+2].[OH-].[OH-].[OH-]` [Copper oxychloride], the “effect of Formulation I on the effectiveness of fungicides, PLASVI” value [1, 5] is reported as “x (0-20% reduction in percent disease)”, the “effect of Formulation I on the effectiveness of fungicides, PSPECU” value [2] is reported as “x (key: x: 0-20% reduction in percent disease; xx: 21-35% reduction in percent disease; xxx: 36-50% reduction in percent disease; xxxx: >50% reduction in percent disease)” and the “effect of Formulation I … PHYTIN” value [3, 5] is reported as “x (0-20% reduction in percent disease)”.
`Cc1ccc(-c2c(Cl)nc(C#N)n2S(=O)(=O)N(C)C)cc1` [Cyazofamid] was tested, and the “Reduction in percent disease, Formul. I” value [1, 5] was “x (0-20% reduction in percent disease)”, the “Reduction in percent disease, Formul. II” value [1] was “x (0-20% reduction in percent disease)” and the “Reduction in percent disease PLASVI” value [1, 4] was “x (0-20% reduction in percent disease)”. The “Reduction in percent disease, Formul. II” value [2] was “x (key: x: 0-20% reduction in percent disease; xx: 21-35% reduction in percent disease; xxx: 36-50% reduction in percent disease; xxxx: >50% reduction in percent disease)”, the “Reduction in percent disease, Formul. I” value [3, 6] was “xx (21-35% reduction in percent disease)” and the “Reduction in percent disease, Formul. II” value ([3]; Table 21) was “xxx (36-50% reduction in percent disease)”. For the same compound, the “Reduction in percent disease PHYTIN” value [3, 4] was “x (0-20% reduction in percent disease)”.
In the case of `CCNC(=O)NC(=O)/C(C#N)=N/OC` [Cymoxanil], the “Reduction in percent disease PLASVI” value [1, 7] is reported as “x (0-20% reduction in percent disease)”, the “Reduction in percent disease PSPECU” value [2] is reported as “x (key: x: 0-20% reduction in percent disease; xx: 21-35% reduction in percent disease; xxx: 36-50% reduction in percent disease; xxxx: >50% reduction in percent disease)” and the “Reduction in percent disease PHYTIN” value [3, 7] is reported as “xx (21-35% reduction in percent disease)”.
`O=C1c2ccccc2C(=O)N1SC(Cl)(Cl)Cl` [Folpet] was tested, and the “Reduction in percent disease, Formul. I” value [2] was “x (key: x: 0-20% reduction in percent disease; xx: 21-35% reduction in percent disease; xxx: 36-50% reduction in percent disease; xxxx: >50% reduction in percent disease)” and the “Reduction in percent disease, Formul. I” value ([3]; fungicide with Formulation I at 100 ppm of attractant derivative, Table 22) was “x (0-20% reduction in percent disease)”.
In the case of `CO/N=C(/C(=O)OC)c1ccccc1COc1ccccc1C` [Kresoxim-methyl], the “Reduction in percent disease PSPECU” value [2] is reported as “x (key: x: 0-20% reduction in percent disease; xx: 21-35% reduction in percent disease; xxx: 36-50% reduction in percent disease; xxxx: >50% reduction in percent disease)”, the “Reduction in percent disease, Formul. II” value [2] is reported as “x (key: x: 0-20% reduction in percent disease; xx: 21-35% reduction in percent disease; xxx: 36-50% reduction in percent disease; xxxx: >50% reduction in percent disease)” and the “Reduction in percent disease PHYTIN” value [3, 7] is reported as “x (0-20% reduction in percent disease)”.
In the case of `COC(=O)N(OC)c1ccccc1COc1ccn(-c2ccc(Cl)cc2)n1` [Pyraclostrobin], the “Reduction in percent disease PSPECU” value [2] is reported as “x (key: x: 0-20% reduction in percent disease; xx: 21-35% reduction in percent disease; xxx: 36-50% reduction in percent disease; xxxx: >50% reduction in percent disease)” and the “Reduction in percent disease PHYTIN” value [3, 7] is reported as “x (0-20% reduction in percent disease)”.
